Experimental data reported in patent US5723484A, “Benzopyran compounds as 5-HT2C receptor antagonists” (Adir et Compagnie, priority 1994, dated 1998).
Structures can show the parent of a compound that is named as a salt.

How the values were obtained:
5-HT2A receptors = biological target: T1, 5-HT2A receptors (Rattus norvegicus, UniProt P14842); assay: In vitro affinity for the 5-HT2A receptors, rat frontal cortex/[3H]-ketanserin (1.0 nM); type: binding; conditions: rat frontal cortex, [3H]-ketanserin 1.0 nM; average of two to four determinations
T1 construct: rat frontal cortex; from tissue; host or cells: rat frontal cortex
Method: (§1) Measurement of the in vitro affinity for the 5-HT2C and 5-HT2A receptors
(§2) The procedures described for the studies of the binding to the 5-HT2A and 5-HT2C receptors are exactly those described by H. Canton et al. (Eur. J. Pharmacol., 191, 93, 1990) and M. J. Millan et al. (J. Pharmacol. Exp. Ther., 262, 451-463, 1992). For 5-HT2A : rat frontal cortex/[^3 H]-ketanserin (1.0 nM). For 5-HT2C : pig […] plexus/[^3 H]-mesulergine (1.0 nM). The 50% inhibitory doses (ID50) are determined by regression analysis and the pKi values are calculated as follows: [formula] [L]=concentration of the Kd-Kd=dissociation constant Results

5-HT2C receptors [1] = assay: biochemical; type: binding, pig; conditions: for 5-HT2A /5-HT2C affinity ratio: 5-HT2A Ki (rat frontal cortex) over 5-HT2C Ki (pig cerebral plexus); for selectivity relative to the reference compound SB 200,646: 5-HT2C vs 5-HT2A, relative to SB 200,646
Method: as §1, §2

5-HT2C receptors [2] = biological target: T2, 5-HT2C receptors (Sus scrofa, UniProt K7GSR7); assay: biochemical; type: binding, pig; conditions: for Ki: 5-HT2C Ki (nM), pig cerebral plexus, [3H]-mesulergine 1.0 nM, average of two to four determinations
T2 construct: pig cerebral plexus; from tissue; host or cells: pig cerebral plexus (own knowledge: choroid plexus)
T2 sequence (K7GSR7 1-457): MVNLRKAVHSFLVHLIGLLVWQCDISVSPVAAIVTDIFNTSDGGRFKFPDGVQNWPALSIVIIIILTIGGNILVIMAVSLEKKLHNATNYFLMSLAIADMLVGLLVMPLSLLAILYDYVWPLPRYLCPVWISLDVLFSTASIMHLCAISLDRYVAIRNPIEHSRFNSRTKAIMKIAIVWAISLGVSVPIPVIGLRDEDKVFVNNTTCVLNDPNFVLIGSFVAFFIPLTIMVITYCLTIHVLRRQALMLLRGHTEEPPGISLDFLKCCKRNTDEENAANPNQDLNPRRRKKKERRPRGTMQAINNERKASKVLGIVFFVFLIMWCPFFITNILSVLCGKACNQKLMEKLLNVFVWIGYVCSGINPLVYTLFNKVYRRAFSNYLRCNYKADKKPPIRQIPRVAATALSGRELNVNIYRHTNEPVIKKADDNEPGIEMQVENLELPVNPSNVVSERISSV
Method: as §1, §2

T1 sequence (P14842 whole entry): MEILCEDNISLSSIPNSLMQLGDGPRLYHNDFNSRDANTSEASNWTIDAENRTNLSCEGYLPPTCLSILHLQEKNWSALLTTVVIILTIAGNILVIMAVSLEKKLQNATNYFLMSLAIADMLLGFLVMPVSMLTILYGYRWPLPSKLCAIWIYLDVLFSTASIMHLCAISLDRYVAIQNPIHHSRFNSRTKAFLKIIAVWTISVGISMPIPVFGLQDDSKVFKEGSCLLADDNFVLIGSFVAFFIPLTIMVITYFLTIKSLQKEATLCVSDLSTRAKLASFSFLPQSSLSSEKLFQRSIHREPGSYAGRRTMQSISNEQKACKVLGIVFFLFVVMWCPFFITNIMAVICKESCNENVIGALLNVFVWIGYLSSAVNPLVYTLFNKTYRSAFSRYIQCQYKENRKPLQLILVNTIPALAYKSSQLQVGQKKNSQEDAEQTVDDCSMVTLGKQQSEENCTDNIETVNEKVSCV

COc1cccc2c1[C@@H]1CNC[C@@H]1CO2.Cl (relative stereo) [Example 16, cis-9-Methoxy-1,3,3a,4,9b-pentahydro-(1)-benzopyrano[3,4-c]pyrrole hydrochloride]
Ki (5-HT2A receptors): 3310 nM
5-HT2A /5-HT2C affinity ratio (5-HT2C receptors [1]): 12.6
Ki (5-HT2C receptors [2]): 263 nM

COc1cccc2c1[C@H]1CN(Cc3ccccc3)C[C@@H]1CO2.Cl (relative stereo) [Example 3, trans-2-Benzyl-9-methoxy-1,3,3a,4,9b-pentahydro-(1)-benzopyrano[3,4-c]pyrrole hydrochloride]
Ki (5-HT2A receptors): 269 nM
5-HT2A /5-HT2C affinity ratio (5-HT2C receptors [1]): 5.6
Ki (5-HT2C receptors [2]): 48 nM

Cl.c1ccc2c(c1)OC[C@H]1CNC[C@@H]21 (relative stereo) [Example 13, cis-1,3,3a,4,9b-Pentahydro-(1)-benzopyrano[3,4-c]pyrrole hydrochloride]
Ki (5-HT2A receptors): > 10000 nM
5-HT2A /5-HT2C affinity ratio (5-HT2C receptors [1]): > 3.33
Ki (5-HT2C receptors [2]): 3090 nM

C=CCN1C[C@@H]2COc3cccc(OC)c3[C@H]2C1 (relative stereo) [Example 7, trans-2-Allyl-9-methoxy-1,3,3a,4,9b-pentahydro-(1)-benzopyrano[3,4-c]pyrrol]
Ki (5-HT2A receptors): 1820 nM
5-HT2A /5-HT2C affinity ratio (5-HT2C receptors [1]): 15.2
selectivity relative to the reference compound SB 200,646 (5-HT2C receptors [1]): twice that of the reference compound SB 200,646
Ki (5-HT2C receptors [2]): 120 nM

Clc1ccc2c(c1)[C@H]1CN(Cc3ccccc3)C[C@H]1CO2 (relative stereo) [Example 24, cis-2-Benzyl-8-chloro-1,3,3a,4,9b-pentahydro-(1)-benzopyrano[3,4-c]pyrrolehydrochloride]
Ki (5-HT2A receptors): 107 nM
5-HT2A /5-HT2C affinity ratio (5-HT2C receptors [1]): 2.8
Ki (5-HT2C receptors [2]): 38 nM

c1ccc2c(c1)OC[C@@H]1CN(CCOc3cccc4c3SCCC4)C[C@H]21 (relative stereo) [Example 19, cis-2-[2-(Thiochroman-8-yloxy)ethyl]-1,3,3a,9b-pentahydro-(1)-benzopyrano[3,4-c]pyrrole hydrochloride]
Ki (5-HT2A receptors): 155 nM
5-HT2A /5-HT2C affinity ratio (5-HT2C receptors [1]): 7.0
Ki (5-HT2C receptors [2]): 22 nM
times more powerful antagonists than the reference compound SB 200,646 (5-HT2C receptors [2]; relative to SB 200,646): 9 times

COc1ccc2c(c1)OC[C@H]1CN(Cc3ccccc3)C[C@H]21.Cl (relative stereo) [Example 22, trans-2-Benzyl-7-methoxy-1,3,3a,4,9b-pentahydro-(1)-benzopyrano[3,4-c]pyrrole hydrochloride]
Ki (5-HT2A receptors): 170 nM
5-HT2A /5-HT2C affinity ratio (5-HT2C receptors [1]): 3.6
Ki (5-HT2C receptors [2]): 478 nM

Cl.c1ccc2c3c(ccc2c1)[C@@H]1CNC[C@@H]1CO3 (relative stereo) [Example 36, cis-12,13,14,15,16,17-Hexahydro-11-oxa-16-aza-cyclopenta[a]phenanthrene hydrochloride]
Ki (5-HT2A receptors): 257 nM
5-HT2A /5-HT2C affinity ratio (5-HT2C receptors [1]): 10
Ki (5-HT2C receptors [2]): 25.7 nM

COc1cccc2c1[C@@H]1CN(CCNC(=O)c3ccc(F)cc3)C[C@H]1CO2 (relative stereo) [Example 8, trans-2-[3-(4-Fluorobenzoylamino)ethyl]-9-methoxy-1,3,3a,4,9b-pentahydro-(1)-benzopyrano[3,4-c]pyrrole]
Ki (5-HT2A receptors): 95 nM
5-HT2A /5-HT2C affinity ratio (5-HT2C receptors [1]): 0.9
Ki (5-HT2C receptors [2]): 107 nM

Cl.c1ccc(CN2C[C@H]3COc4c(ccc5ccccc45)[C@@H]3C2)cc1 (relative stereo) [Example 34, trans-16-Benzyl-12,13,14,15,16,17-hexahydro-11-oxa-16-aza-cyclopenta[a]phenanthrene hydrochloride]
Ki (5-HT2A receptors): 1480 nM
5-HT2A /5-HT2C affinity ratio (5-HT2C receptors [1]): 1.9
Ki (5-HT2C receptors [2]): 776 nM

Cl.Clc1ccc2c(c1)OC[C@H]1CN(Cc3ccccc3)C[C@H]21 (relative stereo) [Example 18, trans-2-Benzyl-7-chloro-1,3,3a,4,9b-pentahydro-(1)-benzopyrano[3,4-c]pyrrole hydrochloride]
Ki (5-HT2A receptors): 1870 nM
5-HT2A /5-HT2C affinity ratio (5-HT2C receptors [1]): 2.1
Ki (5-HT2C receptors [2]): 871 nM

Cl.c1ccc(CN2C[C@@H]3COc4ccccc4[C@@H]3C2)cc1 (relative stereo) [Example 12, cis-2-Benzyl-1,3,3a,4,9b-pentahydro-(1)-benzopyrano[3,4-c]pyrrole hydrochloride]
Ki (5-HT2A receptors): 3550 nM
5-HT2A /5-HT2C affinity ratio (5-HT2C receptors [1]): 4.3
Ki (5-HT2C receptors [2]): 832 nM

Oc1cccc2c1[C@H]1CN(Cc3ccccc3)C[C@H]1CO2 (relative stereo) [Example 14, cis-2-Benzyl-9-hydroxy-1,3,3a,4,9b-pentahydro-(1)-benzopyrano[3,4-c]pyrrolehydrochloride]
Ki (5-HT2A receptors): 1100 nM
5-HT2A /5-HT2C affinity ratio (5-HT2C receptors [1]): 5.00
Ki (5-HT2C receptors [2]): 219 nM

c1ccc(CN2C[C@H]3COc4ccc5ccccc5c4[C@H]3C2)cc1 (relative stereo) [Example 37, cis-2-Benzyl-1,2,3,3a,4,11c-hexahydro-5-oxa-2-aza-cyclopenta[c]phenanthrenehydrochloride]
Ki (5-HT2A receptors): 1350 nM
5-HT2A /5-HT2C affinity ratio (5-HT2C receptors [1]): 8.7
Ki (5-HT2C receptors [2]): 155 nM

COc1ccc2c(c1)[C@H]1CNC[C@@H]1CO2.Cl (relative stereo) [Example 10, trans-8-Methoxy-1,3,3a,4,9b-pentahydro-(1)-benzopyrano[3,4-c]pyrrole hydrochloride]
Ki (5-HT2A receptors): > 10000 nM
5-HT2A /5-HT2C affinity ratio (5-HT2C receptors [1]): > 4.8
Ki (5-HT2C receptors [2]): 2190 nM

COc1ccc2c(c1)[C@H]1CN(Cc3ccccc3)C[C@@H]1CO2.Cl (relative stereo) [Example 9, trans-2-Benzyl-8-methoxy-1,3,3a,4,9b-pentahydro-(1)-benzopyrano[3,4-c]pyrrole hydrochloride]
Ki (5-HT2A receptors): 1100 nM
5-HT2A /5-HT2C affinity ratio (5-HT2C receptors [1]): 2.3
Ki (5-HT2C receptors [2]): 468 nM

COc1cccc2c1[C@H]1CNC[C@@H]1CO2.Cl (relative stereo) [Example 4, trans-9-Methoxy-1,3,3a,4,9b-pentahydro-(1)-benzopyrano[3,4-c]pyrrole hydrochloride]
Ki (5-HT2A receptors): 3470 nM
5-HT2A /5-HT2C affinity ratio (5-HT2C receptors [1]): 8.0
Ki (5-HT2C receptors [2]): 431 nM

Cl.c1ccc2c3c(ccc2c1)OC[C@@H]1CNC[C@@H]31 (relative stereo) [Example 33, trans-1,2,3,3a,4,11c-Hexahydro-5-oxa-2-aza-cyclopenta[c]phenanthrene hydrochloride]
Ki (5-HT2A receptors): 107 nM
5-HT2A /5-HT2C affinity ratio (5-HT2C receptors [1]): 2.1
Ki (5-HT2C receptors [2]): 51 nM

Cl.c1ccc2c3c(ccc2c1)OC[C@@H]1CNC[C@H]31 (relative stereo) [Example 38, cis-1,2,3,3a,4,11c-Hexahydro-5-oxa-2-aza-cyclopenta[c]phenanthrene hydrochloride]
Ki (5-HT2A receptors): 97.7 nM
5-HT2A /5-HT2C affinity ratio (5-HT2C receptors [1]): 4.3
Ki (5-HT2C receptors [2]): 22.9 nM

Cl.Oc1cccc2c1[C@H]1CN(Cc3ccccc3)C[C@@H]1CO2 (relative stereo) [Example 2, trans-2-Benzyl-9-hydroxy-1,3,3a,4,9b-pentahydro-(1)-benzopyrano[3,4-c]pyrrole hydrochloride]
Ki (5-HT2A receptors): 490 nM
5-HT2A /5-HT2C affinity ratio (5-HT2C receptors [1]): 2.5
Ki (5-HT2C receptors [2]): 195 nM

COc1ccc2c(c1)OC[C@@H]1CN(Cc3ccccc3)C[C@H]21 (relative stereo) [Example 21, cis-2-Benzyl-7-methoxy-1,3,3a,4,9b-pentahydro-(1)-benzopyrano[3,4-c]pyrrolehydrochloride]
Ki (5-HT2A receptors): 617 nM
5-HT2A /5-HT2C affinity ratio (5-HT2C receptors [1]): 0.7
Ki (5-HT2C receptors [2]): 871 nM

CCCN1C[C@@H]2COc3cccc(OC)c3[C@H]2C1 (relative stereo) [Example 6, trans-2-Propyl-9-methoxy-1,3,3a,4,9b-pentahydro-(1)-benzopyrano[3,4-c]pyrrole]
Ki (5-HT2A receptors): 1740 nM
5-HT2A /5-HT2C affinity ratio (5-HT2C receptors [1]): 16.7
selectivity relative to the reference compound SB 200,646 (5-HT2C receptors [1]): twice that of the reference compound SB 200,646
Ki (5-HT2C receptors [2]): 104 nM

CCCN1C[C@@H]2COc3ccc(OC)cc3[C@H]2C1.Cl (relative stereo) [Example 11, trans-2-Propyl-8-methoxy-1,3,3a,4,9b-pentahydro-(1)-benzopyrano[3,4-c]pyrrole hydrochloride]
Ki (5-HT2A receptors): > 10000 nM
5-HT2A /5-HT2C affinity ratio (5-HT2C receptors [1]): > 2.3
Ki (5-HT2C receptors [2]): 4070 nM

Cl.c1ccc(CN2C[C@@H]3COc4c(ccc5ccccc45)[C@@H]3C2)cc1 (relative stereo) [Example 35, cis-16-Benzyl-12,13,14,15,16,17-hexahydro-11-oxa-16-aza-cyclopenta[a]phenanthrene hydrochloride]
Ki (5-HT2A receptors): 955 nM
5-HT2A /5-HT2C affinity ratio (5-HT2C receptors [1]): 2.9
Ki (5-HT2C receptors [2]): 331 nM

COc1cccc2c1[C@H]1CN(Cc3ccccc3)C[C@H]1CO2 (relative stereo) [Example 15, cis-2-Benzyl-9-methoxy-1,3,3a,4,9b-pentahydro-(1)-benzopyrano[3,4-c]pyrrolehydrochloride]
Ki (5-HT2A receptors): 389 nM
5-HT2A /5-HT2C affinity ratio (5-HT2C receptors [1]): 10.7
Ki (5-HT2C receptors [2]): 36.3 nM
